Data from PMC6792352, “Limited Chemical Structural Diversity Found to Modulate Thyroid Hormone Receptor in the Tox21 Chemical Library” (Environmental Health Perspectives, 2019).
Counter-ions that a name gives are not always drawn.

assay: in vitro; conditions: rat, gh3-tre-luc cells, AC50 (uM) modified / 1000

`N[C@@H]1CCCC[C@H]1N` [1,2-Cyclohexanediamine] and `O=C1OC(=O)C2CCCCC12` (stereo not shown) [Hexahydrophthalic anhydride] cannot be ordered by CC50 at 24 h: greater than 90 µM for the first, greater than 90 µM for the second.

`CO[C@H]1/C=C/O[C@@]2(C)Oc3c(C)c(O)c4c(O)c(c5c(nc6cc(C)ccn65)c4c3C2=O)NC(=O)/C(C)=C\C=C\[C@H](C)[C@H](O)[C@@H](C)[C@@H](O)[C@@H](C)[C@H](OC(C)=O)[C@@H]1C` [Rifaximin] and `COc1ccc([C@@H]2CC(=O)c3c(O)cc(O[C@@H]4O[C@H](CO[C@@H]5O[C@@H](C)[C@H](O)[C@@H](O)[C@H]5O)[C@@H](O)[C@H](O)[C@H]4O)cc3O2)cc1OC` [Methyl hesperidin] cannot be ordered by CC50 at 24 h: greater than 50 µM for the first, greater than 90 µM for the second.

`COC(=O)c1ccc(CBr)cc1` [Methyl 4-(bromomethyl)benzoate] and `COC(=O)c1cccc(Cl)c1` [Methyl 3-chlorobenzoate] cannot be ordered by CC50 at 24 h: greater than 90 µM for the first, greater than 90 µM for the second.

`CCc1ccc(C(=O)C(C)CN2CCCCC2)cc1` (stereo not shown) [Eperisone hydrochloride] and `CC(C(=O)O)c1ccc(CC2CCCC2=O)cc1` (stereo not shown) [Loxoprofen] cannot be ordered by CC50 at 24 h: greater than 50 µM for the first, greater than 50 µM for the second.

Going from `COc1ccc([C@@H]2Sc3ccccc3N(CCN(C)C)C(=O)[C@@H]2OC(C)=O)cc1` [(+)-Diltiazem] to `CC(CN(C)C)CN1c2ccccc2CCc2ccccc21` (stereo not shown) [Trimipramine maleate], the CC50 at 24 h falls from 22.9 µM to 4.77 µM (4.8-fold).

`COC(=O)/C=C/c1ccccc1` [Methyl (E)-cinnamate] and `N[C@@H](Cc1ccccc1)C(=O)O` [Phenylalanine] cannot be ordered by CC50 at 24 h: greater than 90 µM for the first, greater than 50 µM for the second.

First: C=C1C(=O)O[C@H]2[C@H]1CC/C(C)=C/CC[C@@]1(C)O[C@@H]21 [Parthenolide]
Second: CC(=O)/C=C/C1C(C)=CCCC1(C)C (stereo not drawn) [alpha-Ionone]
The CC50 at 24 h of the first is lower: 13.8 µM for the first, greater than 90 µM for the second.

`C[C@@H](Oc1ccc(CNC(=O)c2cccnc2Oc2ccc3c(c2)OCO3)c(F)c1)C(=O)O` [CP-671305] and `CC(C)[C@@H](Nc1ccc(C(F)(F)F)cc1Cl)C(=O)OC(C#N)c1cccc(Oc2ccccc2)c1` (stereo partly shown) [tau-Fluvalinate] cannot be ordered by CC50 at 24 h: greater than 90 µM for the first, greater than 90 µM for the second.

`Nc1cccc(N)n1` [2,6-Diaminopyridine] and `Oc1cccc(O)c1` [Resorcinol] cannot be ordered by CC50 at 24 h: greater than 90 µM for the first, greater than 90 µM for the second.

`O=C(C[C@H]1NCCC[C@@H]1O)Cn1cnc2cc(Br)c(Cl)cc2c1=O` (racemic) [Halofuginone hydrochloride] and `CCCCN1C(=O)[C@@H]([C@H](O)C2CCCCC2)NC(=O)C12CCN(Cc1ccc(Oc3ccc(C(=O)O)cc3)cc1)CC2` [Aplaviroc hydrochloride] cannot be ordered by CC50 at 24 h: greater than 50 µM for the first, 77.3 µM for the second.

`C=Cc1ccc(C)cc1` [4-Methylstyrene] and `CC(C)(C)c1ccccc1O` [2-tert-Butylphenol] cannot be ordered by CC50 at 24 h: greater than 90 µM for the first, greater than 90 µM for the second.

`CC1CCCNC1` (stereo not shown) [3-Methylpiperidine] and `CN1CCC[C@@H]1c1cccnc1` [D-Nicotine] cannot be ordered by CC50 at 24 h: greater than 90 µM for the first, greater than 50 µM for the second.

`CC[N+]1(CC)CCC(=C(c2ccccc2)c2ccccc2)C1C` (stereo not shown) [Prifinium bromide] and `O=P(O)(OCc1ccccc1)OCc1ccccc1` [Dibenzyl phosphate] cannot be ordered by CC50 at 24 h: greater than 50 µM for the first, greater than 90 µM for the second.

`O=C(c1ccccc1)c1ccc(O)cc1O` [2,4-Dihydroxybenzophenone] and `O=C(OCCO)c1ccccc1O` [2-Hydroxyethyl salicylate] cannot be ordered by CC50 at 24 h: greater than 90 µM for the first, greater than 50 µM for the second.

Going from `Cc1cc(C2CCCCC2)n(O)c(=O)c1` [Ciclopirox olamine] to `C#C[C@]1(O)CC[C@H]2[C@@H]3CCc4cc(O)ccc4[C@H]3CC[C@@]21C` [17alpha-Ethinylestradiol], the CC50 at 24 h rises from 1.9 µM to greater than 90 µM.

`C=C(C)C(=O)OCCOCCOCCOCCOC(=O)C(=C)C` [Tetraethyleneglycol dimethacrylate] and `CCCCNc1ccc(C(=O)OCCOCCOCCOCCOCCOCCOCCOCCOCCOC)cc1` [Benzonatate] cannot be ordered by CC50 at 24 h: greater than 90 µM for the first, greater than 20 µM for the second.

`NC(=O)c1ccccc1[N+](=O)[O-]` [2-Nitrobenzamide] and `O=[N+]([O-])c1ccc(F)cc1F` [2,4-Difluoronitrobenzene] cannot be ordered by CC50 at 24 h: greater than 90 µM for the first, greater than 90 µM for the second.

`CC/C(=C\C(=N/O)C(N)=O)C(C)[N+](=O)[O-]` (stereo not shown) [FR900409] and `CC(O)COCC(C)O` (stereo not shown) [1,1'-Oxybis-2-propanol] cannot be ordered by CC50 at 24 h: greater than 90 µM for the first, greater than 90 µM for the second.

Going from `CC[C@@]1(O)C(=O)OCc2c1cc1n(c2=O)Cc2cc3c([N+](=O)[O-])cccc3nc2-1` [Rubitecan] to `O=C1OC(=O)c2cc([N+](=O)[O-])ccc21` [4-Nitrophthalic anhydride], the CC50 at 24 h rises from 1.34 µM to greater than 90 µM.

`CCCCC(CC)COS(=O)(=O)O` (stereo not shown) [Sodium ethasulfate] and `CCCCC(CC)COCCC#N` (stereo not shown) [3-((2-Ethylhexyl)oxy)propionitrile] cannot be ordered by CC50 at 24 h: greater than 90 µM for the first, greater than 90 µM for the second.

Going from `CC(C)(C)c1cc(O)c(C(C)(C)C)cc1O` [2,5-Di-tert-butylbenzene-1,4-diol] to `Cc1cccc(O)c1C` [2,3-Dimethylphenol], the CC50 at 24 h rises from 37.2 µM to greater than 90 µM.

`C[N+]1([O-])CCOCC1` [4-Methylmorpholine 4-oxide] and `C=C[C@H]1C[N@@]2CC[C@H]1C[C@@H]2[C@@H](O)c1ccnc2ccccc12` [Cinchonine] cannot be ordered by CC50 at 24 h: greater than 90 µM for the first, greater than 50 µM for the second.

Compared with `c1ccc2c(c1)Sc1ccccc1N2CCN1CCCC1` [Pyrathiazine], `O=C1C(CC[S+]([O-])c2ccccc2)C(=O)N(c2ccccc2)N1c1ccccc1` (stereo not shown) [Sulfinpyrazone] is higher in CC50 at 24 h: 19.5 µM for the first, greater than 20 µM for the second.

`Cc1cc(-c2ccc(N=Nc3cc(S(=O)(=O)O)c4ccccc4c3N)c(C)c2)ccc1N=Nc1cc(S(=O)(=O)O)c2ccccc2c1N` [C.I. Direct Red 2] and `CC(C)Nc1ccc(NC(C)C)c2c1C(=O)c1ccccc1C2=O` [1,4-Bis(N-isopropylamino)anthraquinone] cannot be ordered by CC50 at 24 h: 62.5 µM for the first, greater than 50 µM for the second.

`CCCCCCCCCCCCCCCC(=O)OC(C)C` [Hexadecanoic acid, 1-methylethyl ester] and `CCCCCCCCCCCCCCCCCCOCC(O)CO` (stereo not shown) [3-(Octadecyloxy)-1,2-propanediol] cannot be ordered by CC50 at 24 h: greater than 50 µM for the first, greater than 50 µM for the second.

`CC(C)[C@@H]1CC[C@@H](C)C[C@H]1OC(=O)c1ccccc1O` [Menthyl salicylate] and `Cc1c(C(C)C)c(=O)n(-c2ccccc2)n1C` [Propyphenazone] cannot be ordered by CC50 at 24 h: greater than 50 µM for the first, greater than 50 µM for the second.

`CC(C)c1ccc2cc(C(C)C)ccc2c1` [2,6-Diisopropylnaphthalene] and `O=C(O)C(c1ccc(Cl)cc1)c1ccc(Cl)cc1` [p,p'-DDA] cannot be ordered by CC50 at 24 h: greater than 90 µM for the first, greater than 90 µM for the second.

`Cc1ccccn1` [2-Methylpyridine] and `C=CCOc1ccccc1OCC(O)CNC(C)C` (stereo not shown) [Oxprenolol hydrochloride] cannot be ordered by CC50 at 24 h: greater than 90 µM for the first, greater than 20 µM for the second.

`O=C(O)[C@@H]1[C@H](C(=O)O)[C@H]2CC[C@@H]1O2` [Endothal] and `O=C(O)CCCCC1CCSS1` (stereo not drawn) [alpha-Lipoic acid] cannot be ordered by CC50 at 24 h: greater than 90 µM for the first, greater than 90 µM for the second.

`COCCCOc1cc(C[C@@H](C[C@H](N)[C@@H](O)C[C@H](C(=O)NCC(C)(C)C(N)=O)C(C)C)C(C)C)ccc1OC` [Aliskiren hydrochloride] and `CCN(CC)CCNC(=O)c1cc(Br)c(N)cc1OC` [Bromopride] cannot be ordered by CC50 at 24 h: greater than 50 µM for the first, greater than 50 µM for the second.

`O=c1oc(=O)c2cc3c(=O)oc(=O)c3cc12` [1H,3H-Benzo(1,2-c:4,5-c')difuran-1,3,5,7-tetrone] and `Cc1nc2c([nH]1)c(=O)n(C)c(=O)n2Cc1ccco1` [Furafylline] cannot be ordered by CC50 at 24 h: greater than 90 µM for the first, greater than 50 µM for the second.

`Cc1c[nH]c(=S)[nH]c1=O` [5-Methyl-2-thiouracil] and `Cc1ncc(C[n+]2csc(CCO[P@](=O)(O)OP(=O)(O)O)c2C)c(N)n1` [Cocarboxylase chloride] cannot be ordered by CC50 at 24 h: greater than 90 µM for the first, greater than 50 µM for the second.

`O=C(O)/C=C/c1ccc(O)c(O)c1` [Caffeic acid] and `NNc1ccc(C(=O)O)cc1` [4-Hydrazinobenzoic acid] cannot be ordered by CC50 at 24 h: greater than 90 µM for the first, greater than 90 µM for the second.

First: O=C(Nc1ccc(Cl)cc1)Nc1ccc(Cl)c(C(F)(F)F)c1 [Cloflucarban]
Second: OC(Cn1cncn1)(Cn1cncn1)c1ccc(F)cc1F [Fluconazole]
The CC50 at 24 h of the first is lower: 6.22 µM for the first, greater than 90 µM for the second.

`CC(=O)CC(C)=O` [2,4-Pentanedione] and `CC(=O)OC(C)C[N+](C)(C)C` (stereo not shown) [Methacholine chloride] cannot be ordered by CC50 at 24 h: greater than 100 µM for the first, greater than 20 µM for the second.

Compared with `CC(C)=C[C@@H]1[C@@H](C(=O)OCc2coc(Cc3ccccc3)c2)C1(C)C` [Bioresmethrin], `O=C(Cl)c1cc(C(=O)Cl)cc(C(=O)Cl)c1` [1,3,5-Benzenetricarbonyl trichloride] is lower in CC50 at 24 h: greater than 90 µM for the first, 80 µM for the second.

In the case of `C=C(C)C(=O)OCCC(F)(F)C(F)(F)C(F)(F)C(F)(F)C(F)(F)C(F)(F)F` [6:2 Fluorotelomer methacrylate], the CC50 at 24 h is reported as greater than 90 µM.

same assay, conditions: rat, gh3-tre-luc cells, AC50 (uM) modified / 1000, Tox21_110001=Tox21_112509; viability, 1 nM T3 present, 24 h

In the case of `NC1=NC(=O)C(c2ccccc2)O1` (stereo not shown) [Pemoline], the CC50 at 24 h is reported as greater than 50 µM.

same assay, conditions: rat, gh3-tre-luc cells, AC50 (uM) modified / 1000, Tox21_110001=Tox21_112607; viability, 1 nM T3 present, 24 h

Work on `CN1[C@H]2CC[C@@H]1[C@@H](C(=O)O)[C@@H](OC(=O)c1ccccc1)C2` [Benzoylecgonine] yielded a CC50 at 24 h greater than 50 µM.

same assay, conditions: rat, gh3-tre-luc cells, AC50 (uM) modified / 1000, Tox21_110001=Tox21_112853; viability, 1 nM T3 present, 24 h

Molecule `CN1[C@H]2CC[C@@H]1[C@@H](C(=O)O)[C@@H](OC(=O)c1ccccc1)C2` [Benzoylecgonine] has a CC50 at 24 h greater than 100 µM.

same assay, conditions: rat, gh3-tre-luc cells, AC50 (uM) modified / 1000, Tox21_110001=Tox21_201236; viability, 1 nM T3 present, 24 h

For `CN1CSC(=S)N(C)C1` [Dazomet], the CC50 at 24 h was 5.54 µM.

same assay, conditions: rat, gh3-tre-luc cells, AC50 (uM) modified / 1000, Tox21_110001=Tox21_201394; viability, 1 nM T3 present, 24 h

`CC(C)Nc1nc(Cl)nc(NC(C)C)n1` [Propazine] showed a CC50 at 24 h greater than 90 µM.

same assay, conditions: rat, gh3-tre-luc cells, AC50 (uM) modified / 1000, Tox21_110001=Tox21_202607; viability, 1 nM T3 present, 24 h

In the case of `BrCC1CO1` (stereo not shown) [Epibromohydrin], the CC50 at 24 h is reported as greater than 90 µM.

same assay, conditions: rat, gh3-tre-luc cells, AC50 (uM) modified / 1000, Tox21_110001=Tox21_202811; viability, 1 nM T3 present, 24 h

Work on `N#CNC#N` [Cyanamide,cyano-,sodium salt] yielded a CC50 at 24 h greater than 90 µM.

same assay, conditions: rat, gh3-tre-luc cells, AC50 (uM) modified / 1000, Tox21_110001=Tox21_202971; viability, 1 nM T3 present, 24 h

`Nc1ccc2c(c1)Cc1ccccc1-2` [2-Aminofluorene] gave a CC50 at 24 h greater than 90 µM.

same assay, conditions: rat, gh3-tre-luc cells, AC50 (uM) modified / 1000, Tox21_110001=Tox21_300990; viability, 1 nM T3 present, 24 h

In the case of `CN1CSC(=S)N(C)C1` [Dazomet], the CC50 at 24 h is reported as 34.4 µM.
